Assay results reported in ChEMBL document CHEMBL1201862, “PubChem BioAssay data set” (2004).
The source made the active and inactive calls.

Columns and labels:
Protein skinhead-1 = target: T1, Protein skinhead-1 (Caenorhabditis elegans, UniProt P34707); type: functional
T1 sequence (P34707 whole entry): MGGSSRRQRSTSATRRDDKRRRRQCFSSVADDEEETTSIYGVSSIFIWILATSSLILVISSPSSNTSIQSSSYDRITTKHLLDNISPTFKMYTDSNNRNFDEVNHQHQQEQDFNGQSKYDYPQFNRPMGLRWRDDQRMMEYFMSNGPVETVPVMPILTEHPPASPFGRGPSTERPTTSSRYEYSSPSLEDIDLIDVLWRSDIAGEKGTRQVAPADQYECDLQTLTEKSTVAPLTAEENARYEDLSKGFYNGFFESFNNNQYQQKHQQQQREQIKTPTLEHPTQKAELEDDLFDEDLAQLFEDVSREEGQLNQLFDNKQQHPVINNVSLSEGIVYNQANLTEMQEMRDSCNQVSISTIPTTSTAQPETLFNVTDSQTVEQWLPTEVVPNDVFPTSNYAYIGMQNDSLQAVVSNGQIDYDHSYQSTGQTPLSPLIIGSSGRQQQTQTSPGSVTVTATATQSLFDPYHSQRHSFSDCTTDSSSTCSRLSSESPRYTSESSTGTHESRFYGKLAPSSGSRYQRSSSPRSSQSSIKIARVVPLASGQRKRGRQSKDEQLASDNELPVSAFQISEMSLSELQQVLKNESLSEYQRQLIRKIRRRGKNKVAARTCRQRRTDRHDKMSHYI

Cytochrome P450 2C19 = Cytochrome P450 2C19 (Homo sapiens, UniProt P33261); test: Cytochrome panel assay with activity outcomes. Panel member name: p450-cyp2c19 Compounds with AC50 equal or less than 10 uM are considered active; type: functional; settings: read-out: AC50
Sequence of Cytochrome P450 2C19 (P33261 whole entry, the tested form may be a part): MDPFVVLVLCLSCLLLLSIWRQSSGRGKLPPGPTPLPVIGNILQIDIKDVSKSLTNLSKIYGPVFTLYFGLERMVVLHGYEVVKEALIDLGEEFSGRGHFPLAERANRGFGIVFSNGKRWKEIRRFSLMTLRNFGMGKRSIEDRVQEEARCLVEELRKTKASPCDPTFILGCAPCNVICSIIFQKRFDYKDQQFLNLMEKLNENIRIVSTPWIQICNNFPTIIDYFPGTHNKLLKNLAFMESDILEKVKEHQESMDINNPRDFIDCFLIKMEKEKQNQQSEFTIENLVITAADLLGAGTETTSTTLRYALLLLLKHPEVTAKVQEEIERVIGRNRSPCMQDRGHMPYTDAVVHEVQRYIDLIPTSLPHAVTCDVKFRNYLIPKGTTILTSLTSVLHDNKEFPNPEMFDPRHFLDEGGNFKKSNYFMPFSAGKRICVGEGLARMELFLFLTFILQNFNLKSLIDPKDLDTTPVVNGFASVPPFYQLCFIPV

[1] = target: T2, RNA-binding protein pos-1 (Caenorhabditis elegans, UniProt G5EF15); test: disruptors of C. elegans POS-1 RNA interaction – biochemical, fluorescence polarization, dose response (AID 1964);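 also: purified POS-1 fused to maltose binding protein made in E. coli; potency of compounds blocking POS-1 binding to fluorescent RNA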
T2 sequence (G5EF15 whole entry): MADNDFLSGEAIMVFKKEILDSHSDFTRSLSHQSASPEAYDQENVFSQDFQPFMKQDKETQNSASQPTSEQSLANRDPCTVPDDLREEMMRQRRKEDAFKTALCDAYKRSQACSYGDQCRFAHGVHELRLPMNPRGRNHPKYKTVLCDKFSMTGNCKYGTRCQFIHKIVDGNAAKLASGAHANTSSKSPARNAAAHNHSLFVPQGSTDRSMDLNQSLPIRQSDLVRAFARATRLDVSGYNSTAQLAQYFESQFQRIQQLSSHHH

Cytochrome P450 2C9 = Cytochrome P450 2C9 (Homo sapiens, UniProt P11712)
Sequence of Cytochrome P450 2C9 (P11712 whole entry): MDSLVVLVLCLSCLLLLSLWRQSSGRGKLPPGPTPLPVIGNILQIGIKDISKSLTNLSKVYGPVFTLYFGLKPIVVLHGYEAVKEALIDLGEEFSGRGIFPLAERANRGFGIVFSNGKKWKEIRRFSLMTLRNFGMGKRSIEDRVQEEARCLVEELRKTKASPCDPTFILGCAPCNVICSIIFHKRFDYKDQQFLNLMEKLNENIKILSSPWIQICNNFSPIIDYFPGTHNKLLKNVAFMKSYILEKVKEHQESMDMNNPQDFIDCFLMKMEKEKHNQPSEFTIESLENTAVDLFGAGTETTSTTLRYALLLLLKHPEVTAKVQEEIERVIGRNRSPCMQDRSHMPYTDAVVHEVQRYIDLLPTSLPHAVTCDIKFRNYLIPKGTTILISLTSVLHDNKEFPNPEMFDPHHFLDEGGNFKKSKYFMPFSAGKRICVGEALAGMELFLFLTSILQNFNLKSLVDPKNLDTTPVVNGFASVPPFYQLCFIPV

[2] = target: T3, Zinc finger protein mex-5 (Caenorhabditis elegans, UniProt Q9XUB2); test: potency of MEX-5 RNA-binding blockers – biochemical, C. elegans, fluorescence polarization, dose response (AID 1960)
T3 sequence (Q9XUB2 whole entry): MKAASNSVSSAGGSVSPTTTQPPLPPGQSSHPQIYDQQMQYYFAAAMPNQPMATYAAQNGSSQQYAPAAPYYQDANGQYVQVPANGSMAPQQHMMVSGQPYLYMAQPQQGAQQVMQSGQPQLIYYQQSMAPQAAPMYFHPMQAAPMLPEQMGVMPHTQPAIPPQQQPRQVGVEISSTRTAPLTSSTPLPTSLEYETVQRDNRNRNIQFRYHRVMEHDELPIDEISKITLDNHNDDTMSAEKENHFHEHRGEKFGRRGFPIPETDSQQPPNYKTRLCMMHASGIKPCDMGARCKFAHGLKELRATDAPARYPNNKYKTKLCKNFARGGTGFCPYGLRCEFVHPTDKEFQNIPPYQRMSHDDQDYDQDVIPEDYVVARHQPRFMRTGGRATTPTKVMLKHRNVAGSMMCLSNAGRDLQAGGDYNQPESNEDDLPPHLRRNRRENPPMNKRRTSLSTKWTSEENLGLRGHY

H9c2 = test: cells; type: functional, cell-based; settings: Rattus norvegicus, H9c2, Myocardium;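 also: confirmatory concentration-response retest of ultra-high-throughput screening hits for modulation of myocardial damage; cell death induced by hydrogen peroxide oxidative stress; compound pretreatment for 60 min then peroxide exposure for 2 h; potency is for protecting the cells against peroxide damage rather than for killing them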
[3] = Luminescence Cell-Based Dose Confirmation HTS to Identify Activators of 5'UTR Stem-Loop Driven Alpha-Synuclein mRNA Translation in H4 Neuroglioblastoma Cells. [Related pubchem assays: 1829 (Project Summary), 1814 (Primary HTS)]; type: functional
H4 = test: Luminescence Cell-Based Dose Response HTS to Identify Activators of 5'UTR Stem-Loop Driven Prion Protein mRNA Translation in H4 Neuroglioblastoma Cells. [Related pubchem assays: 1829 (Project Summary), 1814 (Primary HTS)]; type: functional; settings: Homo sapiens
[4] = Luminescence Cell-Based Dose Response HTS to Identify Activators of Luciferase Translation or Activity in H4 […] Cells. [Related pubchem assays: 1829 (Project Summary), 1814 (Primary HTS)]; type: functional
[5] = fluconazole-exposed Candida albicans growth modulators – fluorescence, retest, confirmation (AID 2467); type: functional, cell-based
[6] = NIH-3T3 fibroblast cytotoxicity, dose response, cytotoxicity control, cell-based, fluorescence, Alamar Blue, secondary assay (AID 2327); type: functional;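 also: NIH-3T3 mouse fibroblasts cultured with fluconazole at 8 µg/mL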
[7] = viability of uninfected HEp-2 cells – cell-based, HTS, cytotoxicity control for RSV inhibitor project, dose response (AID 2410); type: functional; settings: human respiratory syncytial virus
[8] = microbe, parasite or virus in culture; type: functional; settings: Mycobacterium tuberculosis
[9] = target: T4, Corticotropin-releasing factor receptor 2/Corticotropin-releasing factor-binding protein (Homo sapiens, UniProt P24387+Q13324); test: activators of CRF receptor 2 with binding protein – uHTS hits, confirmation (AID 602473); type: functional; settings: read-out: EC50_Mean
T4 sequence (Q13324 whole entry): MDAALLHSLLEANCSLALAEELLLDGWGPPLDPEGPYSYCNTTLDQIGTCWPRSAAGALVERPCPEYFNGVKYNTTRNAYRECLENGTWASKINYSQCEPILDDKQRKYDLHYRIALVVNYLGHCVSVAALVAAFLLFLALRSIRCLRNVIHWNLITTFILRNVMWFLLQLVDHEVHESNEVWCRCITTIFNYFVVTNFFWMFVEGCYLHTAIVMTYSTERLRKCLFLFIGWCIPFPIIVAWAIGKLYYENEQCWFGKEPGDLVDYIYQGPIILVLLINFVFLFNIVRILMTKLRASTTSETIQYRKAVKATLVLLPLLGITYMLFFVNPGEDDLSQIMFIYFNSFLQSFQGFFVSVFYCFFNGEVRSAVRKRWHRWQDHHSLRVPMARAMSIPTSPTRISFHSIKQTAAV
T4 sequence (P24387 whole entry): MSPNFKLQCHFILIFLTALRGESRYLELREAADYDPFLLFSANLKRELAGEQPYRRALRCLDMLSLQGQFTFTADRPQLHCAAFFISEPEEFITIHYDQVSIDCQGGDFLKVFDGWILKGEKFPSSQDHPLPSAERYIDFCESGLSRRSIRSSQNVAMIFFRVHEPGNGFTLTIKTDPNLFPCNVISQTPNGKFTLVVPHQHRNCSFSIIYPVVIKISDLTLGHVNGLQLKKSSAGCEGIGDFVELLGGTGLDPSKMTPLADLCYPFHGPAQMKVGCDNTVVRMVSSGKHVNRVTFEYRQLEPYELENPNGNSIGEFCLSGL

[10] = Trypanosoma cruzi growth suppression in host cells – NIH3T3 host cells, beta-gal luminescence, confirmation (AID 2044); type: functional, cell-based;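 also: intracellular parasites grown in NIH/3T3 mouse fibroblasts as host cells; luminescent beta-galactosidase reporter signal from transgenic T. cruzi replicating inside host cells; inhibitors lower the luminescence signal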
[11] = NIH3T3 cell viability loss – ATP luminescence, mouse fibroblasts, counter-screen, dose response (AID 2010); type: functional, cell-based;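 also: cells exposed to compound for about 90 hours before reading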
[12] = reduction of Shn3 3'UTR-driven luciferase in osteoblasts – cell-based, Clone20 osteoblasts, firefly luciferase, cherry-picked, dose response (AID 624132); type: functional;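 also: firefly luciferase luminescence from reporter carrying the Shn3 3'UTR in osteoblasts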

CCN1C(=O)/C(=C/N(C)c2ccccc2)OC1=S
IC50 (Protein skinhead-1): 76.6 µM (inactive)

Fc1ccc2c(c1)C1C=CCC1C(c1cc3c(cc1Br)OCO3)N2 (configuration not stated)
AC50 (Cytochrome P450 2C19): 0.316 µM (inconclusive)
EC50 [1]: > 300 µM (not active)
AC50 (Cytochrome P450 2C9): 1.78 µM (inconclusive)
EC50 [2]: > 300 µM (not active)

O=C(CCc1nc(O)c2ccccc2n1)Nc1ccc(F)c([N+](=O)[O-])c1
IC50 (H9c2): > 79 µM (inactive)

COc1cc(/C=C2\C=CC(=O)O2)cc(OC)c1
EC50 [3]: 13.3 µM (active)
EC50 (H4): > 120 µM (not active)
EC50 [4]: 12.2 µM (active)

Cc1ccc(-c2nnc(O)c3ccccc23)cc1S(=O)(=O)Nc1ccccc1
IC50 (H9c2): 21.3 µM (active)

O=[N+]([O-])c1ccc(S(=O)(=O)Nc2nc3ccccc3nc2Nc2ccccc2)cc1
EC50 [5]: 2.06 µM (active)
EC50 [6]: > 150 µM (inactive)

O=C(C1=NNCC1c1ccccc1)C1OC1c1ccccc1 (configuration not stated)
EC50 [3]: 20.8 µM (active)
EC50 (H4): > 120 µM (not active)
EC50 [4]: 13.5 µM (active)

Cc1onc(-c2ccccc2)c1C(=O)NN=C(N)COc1ccc(Cl)cc1
EC50 [5]: > 38 µM (not active)
EC50 [6]: > 150 µM (inactive)

O=C(O)c1cnc(-c2ccccc2)nc1Sc1ccccc1Cl
EC50 [5]: 0.356 µM (active)
EC50 [6]: > 160 µM (inactive)

COc1cccc2cc(-c3cc(=O)oc4ccc(OCC(C)=O)cc34)oc12
IC50 (H9c2): > 79 µM (inactive)

CCCCn1c(N)c(Br)c(=O)[nH]c1=O
IC50 (H9c2): > 79 µM (inactive)

Cc1cccc(NC(S)=NNC(=O)c2csc(C(C)C)c2)c1
EC50 [3]: 20.3 µM (active)
CC50 [7]: 27.1 µM (active)
EC50 [6]: > 150 µM (inactive)
EC50 [4]: 36.9 µM (active)

Cc1c(Cl)cccc1Nc1c([N+](=O)[O-])nn(-c2ccccc2)[n+]1[O-]
IC50 (Protein skinhead-1): > 100 µM (inactive)

O=C(Nc1ccc(Br)c(Cl)c1)c1ccco1
IC50 (Protein skinhead-1): 14.2 µM (active)

O=C1C(Cl)=C(N2CCOCC2)C(=O)N1CCc1ccccc1
EC50 [3]: 0.656 µM (active)
EC50 (H4): > 120 µM (not active)
EC50 [4]: 1.56 µM (active)

CCOC(=O)C1CCN(C(=O)CSCc2nc(-c3ccc(OCC)cc3)oc2C)CC1
CC50 [8]: > 40 µM (active)

O=C(CCC(=O)N1CCN(C2CCCCC2)CC1)Nc1nnc(C(F)(F)F)s1
IC50 (H9c2): > 79 µM (inactive)

Cc1nc(N2CCN(S(=O)(=O)c3cccc4nonc34)CC2)c2c3c(sc2n1)CCCC3
IC50 (H9c2): > 79 µM (inactive)

COc1ccccc1Nc1nc(N)nc(CCl)n1
CC50 [8]: 1.88 µM (active)

N#C/C(=C/c1ccc(Sc2nc3ccccc3[nH]2)o1)c1cccc(Br)c1
CC50 [8]: > 40 µM (active)

O=C(NN=C(S)Nc1cccc(C(F)(F)F)c1)c1ccc(Cl)cc1Cl
EC50 [5]: 4.65 µM (active)
EC50 [9]: > 53 µM (inactive)
EC50 [6]: > 160 µM (inactive)

COc1ccc(NN=Nc2ccc([N+](=O)[O-])cc2)cc1
EC50 [3]: 1.01 µM (active)
EC50 (H4): 64.4 µM (active)
EC50 [4]: 0.485 µM (active)

O=C(/C=C/c1cccs1)c1ccc(Br)cc1
IC50 (Protein skinhead-1): 73.8 µM (inactive)

Cc1ccc(NC(=O)CNC(=O)c2cccs2)cc1S(=O)(=O)Nc1ccc(Cl)cc1
IC50 (Protein skinhead-1): > 100 µM (inactive)

CCCc1ccc(OCC(=O)Nc2cc(S(=O)(=O)CC)ccc2O)cc1
EC50 [5]: 1.45 µM (active)
EC50 [6]: > 160 µM (inactive)

c1ccc(-c2nc(-n3ccnc3)nc(-n3ccnc3)n2)cc1
IC50 (H9c2): > 79 µM (inactive)

CC(=O)Nc1cc(C(F)(F)F)ccc1OCC1CCCO1 (configuration not stated)
IC50 (Protein skinhead-1): > 100 µM (inactive)

CCSc1ccc2cc(OC)ccc2[n+]1CC
EC50 [5]: > 38 µM (not active)
EC50 [10]: 6.53 µM (active)
EC50 [11]: > 60 µM (not active)
EC50 [6]: > 160 µM (inactive)

NS(=O)(=O)c1ccc(N/C=C2/C(=O)N(c3nccs3)C(=O)c3ccccc32)cc1
IC50 (H9c2): > 79 µM (inactive)

O=C(NCc1ccc2c(c1)OCO2)c1nnc(O)c2ccccc12
IC50 (H9c2): > 79 µM (inactive)

Fc1ccccc1-c1nc(-c2ccc(Cl)cc2)no1
IC50 (Protein skinhead-1): > 100 µM (inactive)

CCOC(=O)C1CCN(c2cc3c(cc2NC(=O)c2ccc(F)cc2)n(C)c(=O)n3C)CC1
IC50 (H9c2): 16.7 µM (active)

C/C(=N\NC(=O)c1nnn(-c2nonc2N)c1CSc1ccc(C)cc1)c1cccnc1
IC50 (H9c2): > 79 µM (inactive)

CCOc1ccc(NC(=O)CN(C)C(=O)Cc2nnc(O)c3ccccc23)cc1OCC
IC50 (H9c2): > 79 µM (inactive)

O=C(OCC(=O)N1CCc2ccccc21)c1nnc(O)c2ccccc12
IC50 (H9c2): 12.3 µM (active)

C[C@]12CC[C@H](O)CC1=CCC1C2CC[C@@]2(C)C1CCC21OCCO1 (some centres not stated)
AC50 [12]: 27.3 µM (active)

COc1ccc(OC)c(/C=c2\sc3nc(-c4cccs4)nn3c2=O)c1
EC50 [1]: > 300 µM (not active)
EC50 [2]: > 300 µM (inconclusive)
EC50 [9]: 6.32 µM (active)

Oc1oc(-c2ccccc2Br)nc1/C=N/c1ccccn1
EC50 [3]: 59.1 µM (active)
EC50 (H4): > 120 µM (not active)
EC50 [4]: 13 µM (active)

O=c1cc(/C=C/c2ccccc2)oc2ccccc12
CC50 [8]: > 40 µM (active)
IC50 (Protein skinhead-1): 78.9 µM (inactive)
